In PMC5155146, “Thioredoxin-interacting protein regulates haematopoietic stem cell ageing and rejuvenation by inhibiting p38 kinase activity” (Nature Communications, 2016):

Key:
[1] = tested on: mice; test: 5-FU haematopoietic stress in mice; format: in vivo, mouse
Method: young TXNIP+/+ or T X N IP -/- mice after 5-FU (150 mg kg-1) administration (n=10). NAC was
i.p. injected 100 m g kg -1 daily starting at da y -1. […] We i.p. injected
5- FU (150 mg kg-1) and NAC (100 mg kg-1) then examined ROS in HSCs after 24 hours
Data are mean ± s.d. Statistical significance was determined using a two-t ailed
Student’s t -tests. *P< 0.05, **P < 0.01, ***P <0.001.

[2] = tested on: TXNIP−/− HSCs; test: ROS and phospho-p38 of LT-HSCs after NAC treatment in vivo; parameters: species or system mouse; details: 12-month-old TXNIP−/− mice, NAC 100 mg kg−1 i.p., after 12 hours; n=3
Method: Supplementary Figure 2. Expression of p38 and TXNIP in HSCs and their interaction.
(a,b) ROS (a) and phospho- p38 level (b) of LT-HSCs after NAC treatment. We i.p. injected
100 mg kg-1 NAC into mice then anal yzed after 12 hours (n=3 ) . (c) Quantitative real-time
PCR of p38famil y in indicated subsets (n=3). ( d) Western blot anal yses of lin- cells (r epeated
3 times). ( e) Real-time PCR of TXNIP i n LT -HSCs (n=3). ( f) Confocal images of TXNIP in
LT-HSCs (rep eated 3 times). (g) Western blot anal yses of BM cells (rep eated 2 times). ( h,i )
GST pull-down assa y (repeated 3 times). ( j) Constructed p38 mutant clones. ( k) GST pull-
down assays between TXNIP and p38 mutants (repeated 3 times). Data are mean ± s.d.
Statistical significance was determined using a two-tailed Student’s t -tests. **P < 0.01.
matched WT mice (Fig. 1b). To make the data more consistent, the authors should present
their data as percentages of bone marrow cells and absolute number of LT-HSCs, SH-HSCs
Thank you for your valuable comments. We calculated the percentages of bone
marrow cells and absolute number of LT-HSCs, SH-HSCs and MPPs, and presented
the results in our new version Supplementary Fig. 1c,d.
the exhaustion of HSCs in TXNIP-/- mice by high ROS. We have added this text
“Next, we analyzed the frequency of BM cells and absolute number of LT-HSCs,
ST-HSCs and MPPs in each mouse. […]

[3] = tested on: aged HSCs; test: Competitive transplantation of treated HSCs; format: in vivo, mouse; details: long-term SB203580-administered recipients; n=6-7 from two experiments (Fig. 3d,e)
Description: The repopulation of donor-derived cells was monitored by staining PB from tail vein and BM cells with antibodies against indicated surface markers after 16 weeks.

[4] = tested on: old HSCs; test: Polar distribution of Cdc42 in LT-HSCs (confocal); format: cell-based, mouse; details: sorted LT-HSCs, 10 μM, 16 h in HSC media; 50-60 HSCs scored for Cdc42 polarity; repeated two times
Method: For phosho-p38 and TXNIP analysis using flow cytometry, total BM cells were first stained with surface markers and then fixed and permeabilized with the Cytofix/Perm Solution (BD Biosciences). For TXNIP staining, the cells were blocked with PBS containing 5% BSA for 30 min at RT and then incubated with primary antibody (1:50 dilution) for 1 h in PBS containing 5% BSA, washed three times with PBS and then incubated with a secondary Alexa Fluor 647 (Life technology; 1:1,000 dilution) for 1 h at RT or for phospho-p38 staining, the cells were incubated with anti-phospho-p38-APC (1:40 dilution) at 4 °C for 30 min in PBS containing 2% FBS. For confocal imaging, freshly isolated LT-HSCs were seeded on fibronectin-coated coverslips at 4 °C for 10 min and were immediately fixed. After fixation, cells were permeabilized with 0.2% Triton X-100 for 20 min and blocked with PBS containing 5% BSA for 30 min at RT. Cells were stained primary and secondary antibodies for 1 h at RT and then were mounted with DAPI containing mounting reagent (Molecular Probes). […] After fixation, cells were permeabilized with 0.2% Triton X-100 for 20 min and blocked with PBS containing 5% BSA for 30 min at RT. […] Fifty to sixty individual HSCs were scored for polarity of Cdc42. […]

[5] = tested on: TXNIP-p38 interaction; test: TXNIP-p38 interaction (immunoprecipitation, in situ PLA, GST pull-down); format: cell-based; details: GST pull-down assay in 293T cells
[6] = Solubility; format: physicochemical; details: authors' statement in response to reviewers
[7] = tested on: p38α; test: In vitro kinase assay for p38 (phospho-ATF2 read-out); format: biochemical, human; details: His-p38α, phospho-ATF2 levels; repeated 2 times (Suppl. Fig. 4b)
Method: To examine the kinase activity of p38 in vitro, we used p38 MAP Kinase assay kit (9820, Cell Signaling). We added 0.5–1 μg of His-p38α for kinase assay and its activity was determined by phospho-ATF2 levels. […] FLAG-p38α, β, γ and δ were expressed in 293T cells (ATCC). p38 isoforms were immunoprecipitated with α-FLAG antibody (Sigma; 1:250 dilution) then we performed in vitro kinase assay.

## CC(=O)N[C@@H](CS)C(=O)O [NAC, N-acetyl-L-cysteine]
[1]; 5-FU 150 mg kg−1 and NAC 100 mg kg−1 i.p., ROS after 24 hours, n=3
  5-FU-induced ROS in HSCs: reversed
[1]; young mice, 5-FU 150 mg kg−1, NAC 100 mg kg−1 i.p. daily from day −1, n=10
  rescue of TXNIP−/− mice from 5-FU-induced leucopenia (survival): fully rescued
[2]
  ROS level in HSCs: decreased
  p38 activation in HSCs: decreased

## C[S+]([O-])c1ccc(-c2nc(-c3ccncc3)c(-c3ccc(F)cc3)[nH]2)cc1 (stereo not shown) [SB203580]
[3]
  p38 activity and ROS in donor-derived HSCs: maintained low levels of p38 activity and ROS
[4]
  % of polarized cells (Old HSCs): 76.9%
[5]
  p38 interaction ability with TXNIP: did not affect
[6]
  solubility: DMSO soluble

## YGRKKRRQRRR [TAT]
[4]
  % of polarized cells (Old HSCs): 9.3%

B1: GST-TXNIP-T: GST-fused truncation mutant for TXNIP (150a.a–317a.a) (protein)
chain: DVNTPDLMAPVSAKKEKKVSCMFIPDGRVSVSARIDRKGFCEGDEISIHADFENTCSRIVVPKAAIVARHTYLANGQTKVLTQKLSSVRGNHIISGTCASWRGKSLRVQKIRPSILGCNILRVEYSLLIYVSVPGSKKVILDLPLVIGSRSGLSSRTSSMASRTSSEM
modifications: left off: GST, end not stated, kept
[7]
  p38 kinase activity in vitro: inhibited p38 kinase activity in vitro
